Data on 21 compounds can be found in US20240376073A1 (Hoffmann-La Roche Inc., priority 2021, published 2024).

Structures can show the parent of a compound that is named as a salt.

This assay deals with Acinetobacter baumannii ATCC17961. The experiment in a line: Antimicrobial susceptibility testing: 90% growth inhibitory concentration (IC90) determination. Format: cell-based. The following applies: Acinetobacter baumannii ATCC17961; Iso-Sensitest broth; growth by OD 600 nm over 16 h; 35±2° C.; read-out: ATCC 17961 IC90. On the procedure: The in vitro antimicrobial activity of the compounds was determined according to the following procedure:
The assay used a 10-points Iso-Sensitest broth medium to measure quantitatively the in vitro activity of the compounds against Acinetobacter baumannii ATCC17961.
Stock compounds in DMSO were serially twofold diluted (e.g. range from 50 to 0.097 μM final concentration) in 384 wells microtiter plates and inoculated with 49 μl the bacterial suspension in Iso-Sensitest medium to have a final cell concentration of ˜5×10^(5) CFU/ml in a final volume/well of 50 ul/well. Microtiter plates were incubated at 35±2° C.
Bacterial cell growth was determined with the measurement of optical density at λ=600 nm each 20 minutes over a time course of 16 h. Growth inhibition was calculated during the logarithmic growth of the bacterial cells with determination of the concentration inhibiting 50% (IC50) and 90% (IC90) of the growth.
Table 1 provides the […] growth inhibitory concentrations (IC90) in micromoles per liter of the compounds of present invention obtained against the strain Acinetobacter baumannii ATCC17961.
`COc1ccc(-c2cnc(C(=O)Nc3ccc(C(=O)N4CCN(C(=O)CC[N+](C)(C)C)CC4)c(C)c3)n2C)c(F)c1F` [Example B8, [3-[4-[4-[[5-(2,3-Difluoro-4-methoxy-phenyl)-1-methyl-imidazole-2-carbonyl]amino]-2-methyl-benzoyl]piperazin-1-yl]-3-oxo-propyl]-trimethyl-ammonium;2,2,2-trifluoroacetate]: the IC90 amounted to 180 nM.
For the compound `Cn1c(-c2ccc(OCC#N)c(F)c2F)cnc1C(=O)Nc1ccc(C(=O)N2CCN(C(=O)CC[N+](C)(C)C)CC2)c(Cl)c1` [Example B9, [3-[4-[2-chloro-4-[[5-[4-(cyanomethoxy)-2,3-difluoro-phenyl]-1-methyl-imidazole-2-carbonyl]amino]benzoyl]piperazin-1-yl]-3-oxo-propyl]-trimethyl-ammonium; iodide], the IC90 came to 56 nM.
On to `COc1ccc(-c2cnc(C(=O)Nc3ccc(C(=O)N4CCN(C(=O)C5CC[N+](C)(C)CC5)CC4)c(Cl)c3)n2C)c(F)c1F` [Example B10, N-[3-chloro-4-[4-(1,1-dimethylpiperidin-1-ium-4-carbonyl)piperazine-1-carbonyl]phenyl]-5-(2,3-difluoro-4-methoxy-phenyl)-1-methyl-imidazole-2-carboxamide; formate], for which the IC90 was 75 nM.
The value for `Cn1c(-c2ccc(OC(F)F)cc2F)cnc1C(=O)Nc1ccc(C(=O)N2CCN(C(=O)C[N+](C)(C)C)CC2)c(Cl)c1` [Example B11, [2-[4-[2-chloro-4-[5-[4-(difluoromethoxy)-2-fluoro-phenyl]-1-methyl-imidazole-2-carbonyl]amino]benzoyl]piperazin-1-yl]-2-oxo-ethyl]-trimethyl-ammonium; formate] was 150 nM; that for `Cn1c(-c2ccc(OC(F)F)c(F)c2F)cnc1C(=O)Nc1ccc(C(=O)N2CCN(C(=O)C[N+](C)(C)C)CC2)c(Cl)c1` [Example B12, [2-[4-[2-chloro-4-[[5-[4-(difluoromethoxy)-2,3-difluoro-phenyl]-1-methyl-imidazole-2-carbonyl]amino]benzoyl]piperazin-1-yl]-2-oxo-ethyl]-trimethyl-ammonium; formate] was 51 nM; that for `COc1ccc(-c2cnc(C(=O)Nc3ccc(C(=O)N4CCN(C(=O)CC5CC[N+](C)(C)C5)CC4)c(Cl)c3)n2C)c(F)c1F` (stereo not drawn) [Example B13, N-[3-chloro-4-[4-[2-(1,1-dimethylpyrrolidin-1-ium-3-yl)acetyl]piperazine-1-carbonyl]phenyl]-5-(2,3-difluoro-4-methoxy-phenyl)-1-methyl-imidazole-2-carboxamide; formate] was 68 nM.
Take `Cn1c(-c2ccc(OC(F)F)c(F)c2F)cnc1C(=O)Nc1ccc(C(=O)N2CCN(C(=O)C3CCN(C(=O)C[N+](C)(C)C)CC3)CC2)c(Cl)c1` [Example B14, [2-[4-[4-[2-chloro-4-[[5-[4-(difluoromethoxy)-2,3-difluoro-phenyl]-1-methyl-imidazole-2-carbonyl]amino]benzoyl]piperazine-1-carbonyl]-1-piperidyl]-2-oxo-ethyl]-trimethyl-ammonium; formate]: the IC90 is 76 nM.
Consider `Cn1c(-c2ccc(OC(F)F)c(F)c2)cnc1C(=O)Nc1ccc(C(=O)N2CCN(C(=O)C[N+](C)(C)C)CC2)c(Cl)c1` [Example B15, [2-[4-[2-chloro-4-[[5-[4-(difluoromethoxy)-3-fluoro-phenyl]-1-methyl-imidazole-2-carbonyl]amino]benzoyl]piperazin-1-yl]-2-oxo-ethyl]-trimethyl-ammonium; formate], for which the IC90 is 140 nM.
In the case of `COc1ccc(-c2cnc(C(=O)Nc3ccc(C(=O)N4CCN(C(=O)C5CN(C(=O)C[N+](C)(C)C)C5)CC4)c(Cl)c3)n2C)c(F)c1F` [Example B16, [2-[3-[4-[2-chloro-4-[[5-(2,3-difluoro-4-methoxy-phenyl)-1-methyl-imidazole-2-carbonyl]amino]benzoyl]piperazine-1-carbonyl]azetidin-1yl]-2-oxo-ethyl]-trimethyl-ammonium; formate], the IC90 was 230 nM.
For `COc1ccc(-c2cnc(C(=O)Nc3ccc(C(=O)N4CC(NC(=O)C5CC[N+](C)(C)CC5)C4)c(Cl)c3)n2C)c(F)c1F` [Example B17, N-[1-[2-chloro-4-[[5-(2,3-difluoro-4-methoxy-phenyl)-1-methyl-imidazole-2-carbonyl]amino]benzoyl]azetidin-3-yl]-1,1-dimethyl-piperidin-1-ium-4-carboxamide; formate] the value was 250 nM.
As for `COc1ccc(-c2cnc(C(=O)Nc3ccc(C(=O)N4C[C@@H]5CN(C(=O)[C@@H]6CC[N+](C)(C)C6)C[C@@H]5C4)c(Cl)c3)n2C)c(F)c1F` [Example B18, N-[4-[(3aS,6aR)-5-[(3R)-1,1-dimethylpyrrolidin-1-ium-3-carbonyl]-1,3,3a,4,6,6a-hexahydropyrrolo[3,4-c]pyrrole-2-carbonyl]-3-chloro-phenyl]-5-(2,3-difluoro-4-methoxy-phenyl)-1-methyl-imidazole-2-carboxamide; formate], the IC90 is 300 nM.
The value for `COc1ccc(-c2cnc(C(=O)Nc3ccc(C(=O)N4C[C@H]5CN(C(=O)C[N+](C)(C)C)C[C@H]5C4)c(Cl)c3)n2C)c(F)c1F` [Example B19, [2-[(3aS,6aR)-5-[2-chloro-4-[[5-(2,3-difluoro-4-methoxy-phenyl)-1-methyl-imidazole-2-carbonyl]amino]benzoyl]-1,3,3a,4,6,6a-hexahydropyrrolo[3,4-c]pyrrol-2-yl]-2-oxo-ethyl]-trimethyl-ammonium; formate] was 310 nM; that for `COc1ccc(-c2cnc(C(=O)Nc3ccc(C(=O)N4CCN(C(=O)C[N+](C)(C)C)CC4)c(Cl)c3)n2C)c(F)c1F` [Example B20, [2-[4-[2-chloro-4-[[5-(2,3-difluoro-4-methoxy-phenyl)-1-methyl-imidazole-2-carbonyl]amino]benzoyl]piperazin-1-yl]-2-oxo-ethyl]-trimethyl-ammonium; formate] was 76 nM; that for `COc1ccc(-c2cnc(C(=O)Nc3ccc(C(=O)N4CCN(C(=O)C[N+](C)(C)C)CC4)c(C)c3)n2C)c(F)c1F` [Example B21, [2-[4-[4-[5-(2,3-difluoro-4-methoxy-phenyl)-1-methyl-imidazole-2-carbonyl]amino]-2-methyl-benzoyl]piperazin-1-yl]-2-oxo-ethyl]-trimethyl-ammonium; formate] was 280 nM.
With `Cn1c(-c2ccc(OCF)cc2F)cnc1C(=O)Nc1ccc(C(=O)N2CCN(C(=O)C[N+](C)(C)C)CC2)c(Cl)c1` [Example B22, [2-[4-[2-chloro-4-[5-[2-fluoro-4-(fluoromethoxy)phenyl]-1-methyl-imidazole-2-carbonyl]amino]benzoyl]piperazin-1-yl]-2-oxo-ethyl]-trimethyl-ammonium; formate], the 90% effect concentration (IC90) turned out to be 170 nM.
On to `CCc1cc(NC(=O)c2ncc(-c3ccc(OC)c(F)c3F)n2C)ccc1C(=O)N1CCC(C(=O)NCCOCC[N+](C)(C)C)CC1` [Example B23, 2-(2-(1-(4-(5-(2,3-difluoro-4-methoxyphenyl)-1-methyl-1H-imidazole-2-carboxamido)-2-ethylbenzoyl)piperidine-4-carboxamido)ethoxy)-N,N,N-trimethylethan-1-aminium iodide], for which the IC90 came to 410 nM.
Consider `Cn1c(-c2ccc(OCC#N)c(F)c2F)cnc1C(=O)Nc1ccc(C(=O)N2CCC(C(=O)N[C@H]3CC[N+](C)(C)C3)CC2)c(Cl)c1` [Example B24, (S)-3-(1-(2-chloro-4-(5-(4-(cyanomethoxy)-2,3-difluorophenyl)-1-methyl-1H-imidazole-2-carboxamido)benzoyl)piperidine-4-carboxamido)-1,1-dimethylpyrrolidin-1-ium formate], for which the IC90 was 120 nM.
As for `COc1ccc(-c2cnc(C(=O)Nc3ccc(C(=O)N4CCN(C(=O)[C@@H]5C[C@@H](O)C[N+]5(C)C)CC4)c(Cl)c3)n2C)c(F)c1F` [Example B25, (2S,4R)-2-(4-(2-chloro-4-(5-(2,3-difluoro-4-methoxyphenyl)-1-methyl-1H-imidazole-2-carboxamido)benzoyl)piperazine-1-carbonyl)-4-hydroxy-1,1-dimethylpyrrolidin-1-ium formate], the IC90 came out at 120 nM.
Regarding `Cc1cc(NC(=O)c2ncc(-c3ccc(OCC#N)c(F)c3F)n2C)ccc1C(=O)N1CCN(C(=O)C2(O)CC[N+](C)(C)CC2)CC1` [Example B26, 4-(4-(4-(5-(4-(cyanomethoxy)-2,3-difluorophenyl)-1-methyl-1H-imidazole-2-carboxamido)-2-methylbenzoyl)piperazine-1-carbonyl)-4-hydroxy-1,1-dimethylpiperidin-1-ium formate], the IC90 amounted to 540 nM.
Take `Cn1c(-c2ccc(OCC#N)c(F)c2F)cnc1C(=O)Nc1ccc(C(=O)N2CCN(C(=O)[C@@H]3C[C@](C)(O)C[N+]3(C)C)CC2)c(Cl)c1` [Example B27, (2S,4S)-2-(4-(2-chloro-4-(5-(4-(cyanomethoxy)-2,3-difluorophenyl)-1-methyl-1H-imidazole-2-carboxamido)benzoyl)piperazine-1-carbonyl)-4-hydroxy-1,1,4-trimethylpyrrolidin-1-ium formate]: the IC90 came out at 170 nM.
For `Cc1cc(NC(=O)c2ncc(-c3ccc(OCC#N)c(F)c3F)n2C)ccc1C(=O)N1CCN(C(=O)N[C@@H]2C[N+](C)(C)C[C@H]2O)CC1` [Example B28, (3R,4R)-3-(4-(4-(5-(4-(cyanomethoxy)-2,3-difluorophenyl)-1-methyl-1H-imidazole-2-carboxamido)-2-methylbenzoyl)piperazine-1-carboxamido)-4-hydroxy-1,1-dimethylpyrrolidin-1-ium formate] the value was 220 nM.
